Results: ChEMBL document CHEMBL1201862, “PubChem BioAssay data set” (2004)
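All cell lines were grown in 96-well plates and treated with compound for 48 hours. GI50 is the concentration that inhibits growth by half.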 Calls of active or inactive are those of the source. Rule as the data show it: active = GI50 up to about 1.1 µM and inactive = higher.

Legend:
Assay in all cases: growth of human tumour cells (NCI), 48 h
HOP-62 = tested on: HOP-62
OVCAR-3 = tested on: OVCAR-3
SW-620 = tested on: SW-620
KM12 = tested on: KM12
HCT-15 = tested on: HCT-15
T47D = tested on: T47D
MCF7 = tested on: MCF7
U-251 = tested on: U-251
EKVX = tested on: EKVX
NCI-H226 = tested on: NCI-H226
HCT-116 = tested on: HCT-116
TK-10 = tested on: TK-10
HCC 2998 = tested on: HCC 2998
DU-145 = tested on: DU-145
CAKI-1 = tested on: CAKI-1
CCRF-CEM = tested on: CCRF-CEM
M14 = tested on: M14
K562 = tested on: K562
NCI-H460 = tested on: NCI-H460
SNB-19 = tested on: SNB-19
UO-31 = tested on: UO-31
A498 = tested on: A498
OVCAR-5 = tested on: OVCAR-5
UACC-62 = tested on: UACC-62
NCI-H23 = tested on: NCI-H23
MDA-MB-231 = tested on: MDA-MB-231
SF-539 = tested on: SF-539
MDA-MB-435 = tested on: MDA-MB-435
OVCAR-8 = tested on: OVCAR-8
COLO 205 = tested on: COLO 205
SK-MEL-28 = tested on: SK-MEL-28
SF-268 = tested on: SF-268
OVCAR-4 = tested on: OVCAR-4
SK-MEL-5 = tested on: SK-MEL-5
UACC-257 = tested on: UACC-257
A549 = tested on: A549
SNB-75 = tested on: SNB-75
SN12C = tested on: SN12C
786-0 = tested on: 786-0
ACHN = tested on: ACHN
BT-549 = tested on: BT-549
SK-MEL-2 = tested on: SK-MEL-2
HT-29 = tested on: HT-29
NCI/ADR-RES = tested on: NCI/ADR-RES
HOP-92 = tested on: HOP-92
Hs-578T = tested on: Hs-578T
RPMI-8226 = tested on: RPMI-8226
SF-295 = tested on: SF-295
PC-3 = tested on: PC-3
LOX IMVI = tested on: LOX IMVI
IGROV-1 = tested on: IGROV-1
HL-60 = tested on: HL-60
SR = tested on: SR
MOLT-4 = tested on: MOLT-4
MDA-N = tested on: MDA-N
RXF 393 = tested on: RXF 393
SK-OV-3 = tested on: SK-OV-3
NCI-H522 = tested on: NCI-H522
Malme-3M = tested on: Malme-3M

Compound: OC1=C(c2ccccc2)C2=NCCN2c2ccccc21
- GI50 (HOP-62): 31.8 µM (inactive)
- GI50 (OVCAR-3): 18.2 µM (inactive)
- GI50 (SW-620): 78.7 µM (inactive)
- GI50 (KM12): 31.8 µM (inactive)
- GI50 (HCT-15): 33.3 µM
- GI50 (T47D): > 100 µM (inactive)
- GI50 (MCF7): 42.1 µM (inactive)
- GI50 (U-251): 73.5 µM (inactive)
- GI50 (EKVX): 62.5 µM (inactive)
- GI50 (NCI-H226): 48.9 µM (inactive)
- GI50 (HCT-116): 34.7 µM (inactive)
- GI50 (TK-10): 94 µM (inactive)
- GI50 (HCC 2998): 41.1 µM (inactive)
- GI50 (DU-145): 84.1 µM (inactive)
- GI50 (CAKI-1): > 100 µM (inactive)
- GI50 (CCRF-CEM): 51.5 µM (inactive)
- GI50 (M14): 57.8 µM (inactive)
- GI50 (K562): 21.8 µM (inactive)
- GI50 (NCI-H460): 49.9 µM (inactive)
- GI50 (SNB-19): 20 µM (inactive)
- GI50 (UO-31): 36.9 µM (inactive)
- GI50 (A498): 98.4 µM (inactive)
- GI50 (OVCAR-5): 66.1 µM (inactive)
- GI50 (UACC-62): 29.2 µM (inactive)
- GI50 (NCI-H23): 33.5 µM (inactive)
- GI50 (MDA-MB-231): > 100 µM (inactive)
- GI50 (SF-539): 43.8 µM (inactive)
- GI50 (MDA-MB-435): 39.1 µM (inactive)
- GI50 (OVCAR-8): 51.1 µM (inactive)
- GI50 (COLO 205): 47 µM (inactive)
- GI50 (SK-MEL-28): 79.6 µM (inactive)
- GI50 (SF-268): 45.9 µM (inactive)
- GI50 (OVCAR-4): > 100 µM (inactive)
- GI50 (SK-MEL-5): 27.8 µM (inactive)
- GI50 (UACC-257): 93.1 µM (inactive)
- GI50 (A549): 50.6 µM (inactive)
- GI50 (SNB-75): 23.1 µM (inactive)
- GI50 (SN12C): > 100 µM (inactive)
- GI50 (786-0): 42.5 µM (inactive)
- GI50 (ACHN): 40.6 µM (inactive)
- GI50 (BT-549): 95.7 µM (inactive)
- GI50 (SK-MEL-2): 18.7 µM (inactive)
- GI50 (HT-29): 55.2 µM (inactive)
- GI50 (NCI/ADR-RES): 52.6 µM (inactive)
- GI50 (HOP-92): > 100 µM (inactive)
- GI50 (Hs-578T): 28.1 µM (inactive)
- GI50 (RPMI-8226): 36.4 µM (inactive)
- GI50 (SF-295): 46.1 µM (inactive)
- GI50 (PC-3): 38.1 µM (inactive)
- GI50 (LOX IMVI): 31.7 µM (inactive)
- GI50 (IGROV-1): 40.9 µM (inactive)
- GI50 (HL-60): 45.5 µM (inactive)
- GI50 (SR): 87.3 µM (inactive)
- GI50 (MOLT-4): 46.8 µM (inactive)
- GI50 (MDA-N): 41.2 µM (inactive)

Compound: O=C(O)CNC(=O)c1ccc2cc(C(=O)N3CC(CCl)c4ccc([N+](=O)[O-])cc43)[nH]c2c1 (stereo unspecified)
- GI50 (RXF 393): > 100 µM (inactive)
- GI50 (OVCAR-3): > 100 µM (inactive)
- GI50 (SW-620): > 100 µM (inactive)
- GI50 (KM12): > 100 µM (inactive)
- GI50 (HCT-15): > 100 µM
- GI50 (T47D): > 100 µM (inactive)
- GI50 (MCF7): > 100 µM (inactive)
- GI50 (U-251): > 100 µM (inactive)
- GI50 (EKVX): > 100 µM (inactive)
- GI50 (NCI-H226): > 100 µM (inactive)
- GI50 (HCT-116): > 100 µM (inactive)
- GI50 (TK-10): > 100 µM (inactive)
- GI50 (DU-145): > 100 µM (inactive)
- GI50 (CAKI-1): > 100 µM (inactive)
- GI50 (CCRF-CEM): > 100 µM (inactive)
- GI50 (M14): > 100 µM (inactive)
- GI50 (NCI-H460): > 100 µM (inactive)
- GI50 (SNB-19): > 100 µM (inactive)
- GI50 (UO-31): > 100 µM (inactive)
- GI50 (OVCAR-5): > 100 µM (inactive)
- GI50 (UACC-62): > 100 µM (inactive)
- GI50 (NCI-H23): > 100 µM (inactive)
- GI50 (MDA-MB-231): > 100 µM (inactive)
- GI50 (SF-539): > 100 µM (inactive)
- GI50 (MDA-MB-435): > 100 µM (inactive)
- GI50 (SK-OV-3): > 100 µM (inactive)
- GI50 (OVCAR-8): > 100 µM (inactive)
- GI50 (COLO 205): > 100 µM (inactive)
- GI50 (SF-268): > 100 µM (inactive)
- GI50 (OVCAR-4): > 100 µM (inactive)
- GI50 (SK-MEL-5): > 100 µM (inactive)
- GI50 (UACC-257): > 100 µM (inactive)
- GI50 (A549): > 100 µM (inactive)
- GI50 (SNB-75): > 100 µM (inactive)
- GI50 (SN12C): > 100 µM (inactive)
- GI50 (786-0): > 100 µM (inactive)
- GI50 (ACHN): > 100 µM (inactive)
- GI50 (BT-549): > 100 µM (inactive)
- GI50 (SK-MEL-2): > 100 µM (inactive)
- GI50 (HT-29): > 100 µM (inactive)
- GI50 (NCI/ADR-RES): > 100 µM (inactive)
- GI50 (HOP-92): > 100 µM (inactive)
- GI50 (Hs-578T): > 100 µM (inactive)
- GI50 (RPMI-8226): > 100 µM (inactive)
- GI50 (SF-295): > 100 µM (inactive)
- GI50 (PC-3): > 100 µM (inactive)
- GI50 (LOX IMVI): > 100 µM (inactive)
- GI50 (NCI-H522): > 100 µM (inactive)
- GI50 (IGROV-1): > 100 µM (inactive)
- GI50 (HL-60): > 100 µM (inactive)
- GI50 (SR): > 100 µM (inactive)
- GI50 (MOLT-4): > 100 µM (inactive)
- GI50 (MDA-N): > 100 µM (inactive)

Compound: CC(=O)Oc1ccccc1/C=C/C(=O)/C=C/c1ccccc1OC(C)=O
- GI50 (RXF 393): 0.126 µM (active)
- GI50 (HOP-62): 2.44 µM (inactive)
- GI50 (OVCAR-3): 1.66 µM (inactive)
- GI50 (SW-620): 0.447 µM (active)
- GI50 (KM12): 1.09 µM (active)
- GI50 (HCT-15): 2.09 µM
- GI50 (T47D): 3.49 µM (inactive)
- GI50 (MCF7): 0.959 µM (active)
- GI50 (U-251): 1.51 µM (inactive)
- GI50 (EKVX): 1.79 µM (inactive)
- GI50 (NCI-H226): 1.81 µM (inactive)
- GI50 (HCT-116): 0.239 µM (active)
- GI50 (TK-10): 3.39 µM (inactive)
- GI50 (HCC 2998): 1.88 µM (inactive)
- GI50 (DU-145): 3.08 µM (inactive)
- GI50 (CAKI-1): 3.75 µM (inactive)
- GI50 (CCRF-CEM): 0.501 µM (active)
- GI50 (M14): 1.95 µM (inactive)
- GI50 (K562): 0.429 µM (active)
- GI50 (NCI-H460): 2.05 µM (inactive)
- GI50 (SNB-19): 2.39 µM (inactive)
- GI50 (UO-31): 1.68 µM (inactive)
- GI50 (A498): 2.08 µM (inactive)
- GI50 (OVCAR-5): 2.21 µM (inactive)
- GI50 (UACC-62): 1.64 µM (inactive)
- GI50 (NCI-H23): 1.73 µM (inactive)
- GI50 (MDA-MB-231): 2.66 µM (inactive)
- GI50 (SF-539): 1.74 µM (inactive)
- GI50 (MDA-MB-435): 2.15 µM (inactive)
- GI50 (SK-OV-3): 4.15 µM (inactive)
- GI50 (OVCAR-8): 1.94 µM (inactive)
- GI50 (COLO 205): 1.89 µM (inactive)
- GI50 (SK-MEL-28): 1.97 µM (inactive)
- GI50 (SF-268): 1.71 µM (inactive)
- GI50 (OVCAR-4): 2.38 µM (inactive)
- GI50 (SK-MEL-5): 1.84 µM (inactive)
- GI50 (Malme-3M): 2.81 µM (inactive)
- GI50 (UACC-257): 1.36 µM (inactive)
- GI50 (A549): 2.26 µM (inactive)
- GI50 (SN12C): 1.9 µM (inactive)
- GI50 (786-0): 1.79 µM (inactive)
- GI50 (ACHN): 1.8 µM (inactive)
- GI50 (BT-549): 1.73 µM (inactive)
- GI50 (SK-MEL-2): 3.79 µM (inactive)
- GI50 (HT-29): 1.94 µM (inactive)
- GI50 (NCI/ADR-RES): 3.33 µM (inactive)
- GI50 (HOP-92): 4.11 µM (inactive)
- GI50 (Hs-578T): 3.69 µM (inactive)
- GI50 (RPMI-8226): 0.308 µM (active)
- GI50 (SF-295): 2.26 µM (inactive)
- GI50 (PC-3): 1.65 µM (inactive)
- GI50 (LOX IMVI): 0.64 µM (active)
- GI50 (NCI-H522): 1.96 µM (inactive)
- GI50 (IGROV-1): 2 µM (inactive)
- GI50 (HL-60): 0.748 µM (active)
- GI50 (SR): 0.867 µM (active)
- GI50 (MOLT-4): 1.36 µM (inactive)
- GI50 (MDA-N): 1.91 µM (inactive)
